As usually defined, the IC50 is the point on the concentration scale where inhibition reaches its midpoint.

T1 sequence (O60760 whole entry): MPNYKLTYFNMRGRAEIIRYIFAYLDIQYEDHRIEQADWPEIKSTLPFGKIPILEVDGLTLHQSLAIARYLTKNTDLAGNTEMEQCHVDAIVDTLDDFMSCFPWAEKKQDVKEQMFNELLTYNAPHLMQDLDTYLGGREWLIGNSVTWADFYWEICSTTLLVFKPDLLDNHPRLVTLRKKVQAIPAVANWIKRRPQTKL

One assay concerns the target T1, human Prostaglandin D Synthase (GST2) (Homo sapiens, UniProt O60760).
T1 construct: the open reading frame of human Prostaglandin D Synthase was amplified from cDNA; made in house; host or cells: E. coli TOP10F'
The assay can be described thus: Homogeneous biochemical assay of human Prostaglandin D Synthase (GST2) based on its glutathion-S-transferase activity (GSH conjugation to monochlorobimane, fluorescence).
Conditions: not given
In a few lines:
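N-His-tagged human PGD synthase from E. coli, assayed via its GST activity: GSH conjugation to monochlorobimane in 50 mM MES/KOH pH 6.1, 0.7 mM GSH, 2 mM MgCl2. Compounds at final picomolar to triple-digit micromolar concentrations.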
In the case of `CCN(CC)C(=O)c1ccc(NC(=O)N2CCN(C(=O)c3cccc(F)c3)CC2)cc1` [Compound 102, 4-(3-Fluoro-benzoyl)-piperazine-1-carboxylic acid (4-diethylcarbamoyl-phenyl)-amide], the IC50 lay in the range of 101 to 1000 nM.

The same assay, now with this note: given beside the compound name in Examples 1 to 167; read-out: Potency Range (GST2 IC50).
In the case of `O=C(Nc1cccc(S(=O)(=O)N2CCOCC2)c1)N1CCN(C(=O)c2cccc(F)c2)CC1` [Compound 92, 4-(3-Fluoro-benzoyl)-piperazine-1-carboxylic acid [3-(morpholine-4-sulfonyl)-phenyl]-amide], the IC50 lay within 101 to 1000 nM.
For `CNC(=O)c1cccc(NC(=O)N2CCN(C(=O)c3cccc(F)c3)CC2)c1` [Compound 93, 4-(3-Fluoro-benzoyl)-piperazine-1-carboxylic acid (3-methylcarbamoyl-phenyl)-amide], the half-maximal inhibitory concentration (IC50) was in the range of 101 to 1000 nM.
Same read-out and setting: the value for `COC(=O)c1cc(NC(=O)N2CCN(C(=O)c3cccc(F)c3)CC2)ccc1F` [Compound 94, 2-Fluoro-5-{[4-(3-fluoro-benzoyl)-piperazine-1-carbonyl]-amino}-benzoic acid methyl ester] was 101 to 1000 nM; that for `COC(=O)c1ccc(NC(=O)N2CCN(C(=O)c3cccc(F)c3)CC2)cc1F` [Compound 95, 2-Fluoro-4-{[4-(3-fluoro-benzoyl)-piperazine-1-carbonyl]-amino}-benzoic acid methyl ester] was 101 to 1000 nM.
The same measure, in the same setting: the figure for `O=C(O)c1ccc(NC(=O)N2CCN(C(=O)c3cccc(F)c3)CC2)cc1F` [Compound 96, 2-Fluoro-4-{[4-(3-fluoro-benzoyl)-piperazine-1-carbonyl]-amino}-benzoic acid] is 101 to 1000 nM.
On the same count and under the same terms, the value for `O=C(Nc1ccc(C(=O)N2CCOCC2)c(F)c1)N1CCN(C(=O)c2cccc(F)c2)CC1` [Compound 97, 4-(3-Fluoro-benzoyl)-piperazine-1-carboxylic acid [3-fluoro-4-(morpholine-4-carbonyl)-phenyl]-amide] was 101 to 1000 nM; that for `O=C(Nc1ccc(F)nc1)c1ccc(NC(=O)N2CCN(C(=O)c3cccc(F)c3)CC2)cc1F` [Compound 99, 4-(3-Fluoro-benzoyl)-piperazine-1-carboxylic acid [3-fluoro-4-(6-fluoro-pyridin-3-ylcarbamoyl)-phenyl]-amide] was 101 to 1000 nM.
On to `O=C(O)c1ccc(NC(=O)N2CCN(C(=O)c3cccc(F)c3)CC2)cc1` [Compound 100, 4-{[4-(3-Fluoro-benzoyl)-piperazine-1-carbonyl]-amino}-benzoic acid], for which the IC50 fell in the range of 101 to 1000 nM.
Same read-out and setting: the figure for `O=C(Nc1ccc(F)nc1)c1ccc(NC(=O)N2CCN(C(=O)c3cccc(F)c3)CC2)cc1` [Compound 103, 4-(3-Fluoro-benzoyl)-piperazine-1-carboxylic acid [4-(6-fluoro-pyridin-3-ylcarbamoyl)-phenyl]-amide] is 101 to 1000 nM.
On the same count and under the same terms, the value for `NC(=O)c1ccc(NC(=O)N2CCN(C(=O)c3cccc(F)c3)CC2)cc1F` [Compound 104, 4-(3-Fluoro-benzoyl)-piperazine-1-carboxylic acid (4-carbamoyl-3-fluoro-phenyl)-amide] was 101 to 1000 nM; that for `Nc1cccc(NC(=O)N2CCN(C(=O)c3cccc(F)c3)CC2)c1` [Compound 106, 4-(3-Fluoro-benzoyl)-piperazine-1-carboxylic acid (3-amino-phenyl)-amide] was 101 to 1000 nM.
The same measure, in the same setting: the figure for `O=C(Nc1cccc(NC(=O)N2CCN(C(=O)c3cccc(F)c3)CC2)c1)c1ccccn1` [Compound 107, 4-(3-Fluoro-benzoyl)-piperazine-1-carboxylic acid {3-[(pyridine-2-carbonyl)-amino]-phenyl}-amide] is 11 to 100 nM; for `O=C(Nc1cccc(NC(=O)N2CCN(C(=O)c3cccc(F)c3)CC2)c1)c1cccc[n+]1[O-]` [Compound 108, 4-(3-Fluoro-benzoyl)-piperazine-1-carboxylic acid {3-[(1-oxy-pyridine-2-carbonyl)-amino]-phenyl}-amide] it is 101 to 1000 nM; for `O=C(Nc1cccc(NC(=O)N2CCN(C(=O)c3cccc(F)c3)CC2)c1)c1cc[n+]([O-])cc1` [Compound 110, 4-(3-Fluoro-benzoyl)-piperazine-1-carboxylic acid {3-[(1-oxy-pyridine-4-carbonyl)-amino]-phenyl}-amide] it is 101 to 1000 nM.
As to `O=C(Nc1cccc(NC(=O)N2CCN(C(=O)c3cccc(F)c3)CC2)c1)c1ccc(F)nc1` [Compound 111, 4-(3-Fluoro-benzoyl)-piperazine-1-carboxylic acid {3-[(6-fluoro-pyridine-3-carbonyl)-amino]-phenyl}-amide], the IC50 lay in the range of 101 to 1000 nM.
Still for that read-out and setting: the value for `Nc1ccc(NC(=O)N2CCN(C(=O)c3cccc(F)c3)CC2)cc1` [Compound 112, 4-(3-Fluoro-benzoyl)-piperazine-1-carboxylic acid (4-amino-phenyl)-amide] was 101 to 1000 nM.
On the same count and under the same terms, the value for `Nc1ccc(NC(=O)N2CCN(C(=O)c3cc(F)ccc3F)CC2)cc1` [Compound 113, 4-(2,5-Difluoro-benzoyl)-piperazine-1-carboxylic acid (4-amino-phenyl)-amide] was 101 to 1000 nM; that for `O=C(Nc1ccc(NC(=O)N2CCN(C(=O)c3cccc(F)c3)CC2)cc1)c1ccccn1` [Compound 114, 4-(3-Fluoro-benzoyl)-piperazine-1-carboxylic acid {4-[(pyridine-2-carbonyl)-amino]-phenyl}-amide] was 11 to 100 nM; that for `O=C(Nc1ccc(NC(=O)N2CCN(C(=O)c3cccc(F)c3)CC2)cc1)c1cccc[n+]1[O-]` [Compound 115, 4-(3-Fluoro-benzoyl)-piperazine-1-carboxylic acid {4-[(1-oxy-pyridine-2-carbonyl)-amino]-phenyl}-amide] was 11 to 100 nM.
Same read-out and setting: the value for `O=C(Nc1ccc(NC(=O)N2CCN(C(=O)c3cccc(F)c3)CC2)cc1)c1ccc[n+]([O-])c1` [Compound 116, 4-(3-Fluoro-benzoyl)-piperazine-1-carboxylic acid {4-[(1-oxy-pyridine-3-carbonyl)-amino]-phenyl}-amide] was 11 to 100 nM.
Regarding `O=C(Nc1ccc(NC(=O)N2CCN(C(=O)c3cccc(F)c3)CC2)cc1)c1ccc(F)nc1` [Compound 117, 4-(3-Fluoro-benzoyl)-piperazine-1-carboxylic acid {4-[(6-fluoro-pyridine-3-carbonyl)-amino]-phenyl}-amide], the IC50 lay in the range of 101 to 1000 nM.
The same measure, in the same setting: the value for `O=C(Nc1ccc(NC(=O)N2CCN(C(=O)c3cc(F)ccc3F)CC2)cc1)c1cccc[n+]1[O-]` [Compound 118, 4-(2,5-Difluoro-benzoyl)-piperazine-1-carboxylic acid {4-[(1-oxy-pyridine-2-carbonyl)-amino]-phenyl}-amide] was 11 to 100 nM; that for `O=C(Nc1ccc(NC(=O)N2CCN(C(=O)c3cc(F)ccc3F)CC2)cc1)c1ccc[n+]([O-])c1` [Compound 119, 4-(2,5-Difluoro-benzoyl)-piperazine-1-carboxylic acid {4-[(1-oxy-pyridine-3-carbonyl)-amino]-phenyl}-amide] was 11 to 100 nM; that for `O=C(Nc1ccc(NC(=O)N2CCN(C(=O)c3cccc(F)c3)CC2)cc1)c1ccc(F)cc1` [Compound 120, 4-(3-Fluoro-benzoyl)-piperazine-1-carboxylic acid [4-(4-fluoro-benzoylamino)-phenyl]-amide] was 11 to 100 nM.
As for `CC(C)C(=O)Nc1ccc(NC(=O)N2CCN(C(=O)c3cccc(F)c3)CC2)cc1` [Compound 121, 4-(3-Fluoro-benzoyl)-piperazine-1-carboxylic acid (4-isobutyrylamino-phenyl)-amide], the IC50 lay within 101 to 1000 nM.
As to `O=C(Nc1ccc(NC(=O)N2CCN(C(=O)c3cccc(F)c3)CC2)cc1)c1cccnc1` [Compound 122, 4-(3-Fluoro-benzoyl)-piperazine-1-carboxylic acid {4-[(pyridine-3-carbonyl)-amino]-phenyl}-amide], the IC50 lay in the range of 101 to 1000 nM.
Still for that read-out and setting: the value for `O=C(Nc1ccc(NC(=O)N2CCN(C(=O)c3cccc(F)c3)CC2)cc1)C1CCOCC1` [Compound 124, 4-(3-Fluoro-benzoyl)-piperazine-1-carboxylic acid {4-[(tetrahydro-pyran-4-carbonyl)-amino]-phenyl}-amide] was 101 to 1000 nM.
On the same count and under the same terms, the value for `O=C(Nc1ccc(NS(=O)(=O)c2ccccc2)cc1)N1CCN(C(=O)c2cccc(F)c2)CC1` [Compound 125, 4-(3-Fluoro-benzoyl)-piperazine-1-carboxylic acid (4-benzenesulfonylamino-phenyl)-amide] was 11 to 100 nM; that for `O=C(Nc1ccc(NS(=O)(=O)C2CC2)cc1)N1CCN(C(=O)c2cccc(F)c2)CC1` [Compound 127, 4-(3-Fluoro-benzoyl)-piperazine-1-carboxylic acid (4-cyclopropanesulfonylamino-phenyl)-amide] was 11 to 100 nM; that for `O=C(Nc1ccc(NS(=O)(=O)c2ccc(F)cc2)cc1)N1CCN(C(=O)c2cccc(F)c2)CC1` [Compound 128, 4-(3-Fluoro-benzoyl)-piperazine-1-carboxylic acid [4-(4-fluoro-benzenesulfonylamino)-phenyl]-amide] was 11 to 100 nM.
On the same count and under the same terms, the value for `CS(=O)(=O)N(c1ccc(NC(=O)N2CCN(C(=O)c3cccc(F)c3)CC2)cc1)S(C)(=O)=O` [Compound 129, N-{4-[bis(methylsulfonyl)amino]phenyl}-4-(3-fluorobenzoyl)piperazine-1-carboxamide] was 11 to 100 nM.
For `O=C(Nc1cccc(NS(=O)(=O)c2ccc(F)cc2)c1)N1CCN(C(=O)c2cccc(F)c2)CC1` [Compound 130, 4-(3-Fluoro-benzoyl)-piperazine-1-carboxylic acid [3-(4-fluoro-benzenesulfonylamino)-phenyl]-amide], the half-inhibitory concentration (IC50) was in the range of 101 to 1000 nM.
Same read-out and setting: the value for `O=C(Nc1cccc(NS(=O)(=O)C2CC2)c1)N1CCN(C(=O)c2cccc(F)c2)CC1` [Compound 131, 4-(3-Fluoro-benzoyl)-piperazine-1-carboxylic acid (3-cyclopropanesulfonylamino-phenyl)-amide] was 101 to 1000 nM.

These data come from patent US20100234377A1 (priority 2007, published 2010).
